{
  "source": "ChEMBL document CHEMBL1144983",
  "about": "“Synthesis and affinity of a possible byproduct of electrophilic radiolabeling of [123I]IBZM” (Bioorg Med Chem Lett, 2003)",
  "format_in_all_cases": "organism-based",
  "key": {"D(1A) dopamine receptor [1]": {"target": "T1, D(1A) dopamine receptor (Rattus norvegicus, UniProt P18901)", "T1 sequence (P18901 whole entry)": "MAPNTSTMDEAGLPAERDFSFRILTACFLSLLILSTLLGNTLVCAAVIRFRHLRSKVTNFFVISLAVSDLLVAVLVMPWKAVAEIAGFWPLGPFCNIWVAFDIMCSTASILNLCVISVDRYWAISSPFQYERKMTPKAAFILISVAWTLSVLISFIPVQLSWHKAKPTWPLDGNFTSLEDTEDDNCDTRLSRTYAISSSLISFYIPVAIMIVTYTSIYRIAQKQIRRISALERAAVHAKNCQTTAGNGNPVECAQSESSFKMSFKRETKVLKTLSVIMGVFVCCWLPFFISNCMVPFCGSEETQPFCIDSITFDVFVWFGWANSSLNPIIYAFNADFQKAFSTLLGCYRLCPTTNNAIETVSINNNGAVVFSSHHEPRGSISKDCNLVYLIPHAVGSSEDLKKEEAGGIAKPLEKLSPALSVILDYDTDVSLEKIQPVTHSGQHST", "test": "In vivo inhibitory activity against dopamine (D1) receptor in rat caudate-putamen tissue"}, "D(2) dopamine receptor [2]": {"target": "T2, D(2) dopamine receptor (Rattus norvegicus, UniProt P61169)", "T2 sequence (P61169 whole entry)": "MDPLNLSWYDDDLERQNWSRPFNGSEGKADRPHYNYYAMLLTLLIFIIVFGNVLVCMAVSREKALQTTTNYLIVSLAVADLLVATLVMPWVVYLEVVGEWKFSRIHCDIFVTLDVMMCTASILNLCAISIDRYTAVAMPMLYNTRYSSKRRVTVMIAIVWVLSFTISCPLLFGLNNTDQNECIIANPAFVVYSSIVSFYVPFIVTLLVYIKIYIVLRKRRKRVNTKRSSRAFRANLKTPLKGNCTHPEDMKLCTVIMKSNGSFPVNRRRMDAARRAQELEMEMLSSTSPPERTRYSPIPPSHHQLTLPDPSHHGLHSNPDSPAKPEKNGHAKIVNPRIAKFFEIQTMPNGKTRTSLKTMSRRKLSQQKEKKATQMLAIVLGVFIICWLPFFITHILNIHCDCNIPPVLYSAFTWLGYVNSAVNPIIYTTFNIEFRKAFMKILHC", "test": "In vivo inhibitory activity against dopamine (D2) receptor in rat caudate-putamen tissue"}, "D(1A) dopamine receptor [3]": {"target": "T1, D(1A) dopamine receptor", "test": "In vivo binding affinity against dopamine (D1) receptor in rat caudate-putamen tissue using [3H]SCH-23390 as radioligand"}, "D(2) dopamine receptor [4]": {"target": "T2, D(2) dopamine receptor", "test": "In vivo binding affinity against dopamine (D2) receptor in rat caudate-putamen tissue using [3H]nemonapride as radioligand"}},
  "data": [
    {"smiles": "CCN1CCC[C@H]1CNC(=O)c1c(O)ccc(I)c1OC", "values": [
      {"measurement": "IC50", "setting": "D(1A) dopamine receptor [1]", "value": "> 10000", "unit": "nM"},
      {"measurement": "IC50", "setting": "D(2) dopamine receptor [2]", "value": 196, "unit": "nM"}
    ]},
    {"smiles": "CCN1CCC[C@H]1CNC(=O)c1c(OC)ccc(I)c1O", "note": "[IOLOPRIDE]", "values": [
      {"measurement": "IC50", "setting": "D(1A) dopamine receptor [3]", "value": "> 10000", "unit": "nM"},
      {"measurement": "IC50", "setting": "D(1A) dopamine receptor [1]", "value": "> 10000", "unit": "nM"},
      {"measurement": "IC50", "setting": "D(2) dopamine receptor [4]", "value": 1.2, "unit": "nM"},
      {"measurement": "IC50", "setting": "D(2) dopamine receptor [2]", "value": 1.71, "unit": "nM"}
    ]},
    {"smiles": "CCN1CCC[C@H]1CNC(=O)c1c(O)c(Cl)cc(Cl)c1OC", "note": "[RACLOPRIDE]", "values": [
      {"measurement": "IC50", "setting": "D(1A) dopamine receptor [1]", "value": "> 10000", "unit": "nM"}
    ]}
  ]
}
